Data: PubChem BioAssay (NCI)
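48-hour exposure; five concentrations; linearly interpolated endpoints. Definition used: TGI = concentration required for complete inhibition of growth.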

Assays:
Assay in all cases: NCI anticancer screen, dose series, 48 h
UO-31 renal = system: UO-31 renal
NCI-H23 lung = system: NCI-H23 lung
A498 renal = system: A498 renal
KM20L2 colon = system: KM20L2 colon
IGROV1 ovarian = system: IGROV1 ovarian
DMS 114 small cell lung = system: DMS 114 small cell lung
A549 NSCLC = system: A549 NSCLC
HCC-2998 colon = system: HCC-2998 colon
NCI-H226 lung = system: NCI-H226 lung
OVCAR-5 ovarian = system: OVCAR-5 ovarian
SF-295 CNS = system: SF-295 CNS
ACHN renal = system: ACHN renal
SK-OV-3 ovarian = system: SK-OV-3 ovarian
RPMI-8226 leukemia = system: RPMI-8226 leukemia
DMS 273 small cell lung = system: DMS 273 small cell lung
COLO 205 colon = system: COLO 205 colon
NCI-H460 lung = system: NCI-H460 lung
SF-539 CNS = system: SF-539 CNS
OVCAR-8 ovarian = system: OVCAR-8 ovarian
SNB-75 CNS = system: SNB-75 CNS
MOLT-4 leukemia = system: MOLT-4 leukemia
SK-MEL-5 melanoma = system: SK-MEL-5 melanoma
SN12C renal = system: SN12C renal
TK-10 renal = system: TK-10 renal
HT29 colon = system: HT29 colon
HOP-18 NSCLC = system: HOP-18 NSCLC
CAKI-1 renal = system: CAKI-1 renal
SF-268 CNS = system: SF-268 CNS
XF 498 CNS = system: XF 498 CNS
HOP-62 NSCLC = system: HOP-62 NSCLC
M14 melanoma = system: M14 melanoma
SNB-78 CNS = system: SNB-78 CNS
U251 CNS = system: U251 CNS
SK-MEL-28 melanoma = system: SK-MEL-28 melanoma
HL-60(TB) leukemia = system: HL-60(TB) leukemia
SW-620 colon = system: SW-620 colon
KM12 colon = system: KM12 colon
DLD-1 colon = system: DLD-1 colon
OVCAR-3 ovarian = system: OVCAR-3 ovarian
SNB-19 CNS = system: SNB-19 CNS
SK-MEL-2 melanoma = system: SK-MEL-2 melanoma
NCI-H522 lung = system: NCI-H522 lung
CCRF-CEM leukemia = system: CCRF-CEM leukemia
786-0 renal = system: 786-0 renal
K-562 leukemia = system: K-562 leukemia
LXFL 529 NSCLC = system: LXFL 529 NSCLC
M19-MEL melanoma = system: M19-MEL melanoma
HCT-15 colon = system: HCT-15 colon
EKVX NSCLC = system: EKVX NSCLC
HOP-92 NSCLC = system: HOP-92 NSCLC
UACC-62 melanoma = system: UACC-62 melanoma
MALME-3M melanoma = system: MALME-3M melanoma
OVCAR-4 ovarian = system: OVCAR-4 ovarian
HCT-116 colon = system: HCT-116 colon
LOX IMVI melanoma = system: LOX IMVI melanoma
RXF 393 renal = system: RXF 393 renal
SR leukemia = system: SR leukemia
UACC-257 melanoma = system: UACC-257 melanoma

For CSc1cccc(-n2c3nc(=O)n(C)c(=O)c-3nc3ccccc32)c1, the TGI (UO-31 renal) was 32.9 µM, the TGI (NCI-H23 lung) was 70.3 µM and the TGI (A498 renal) was 25.3 µM. The TGI (KM20L2 colon) was 15.4 µM, the TGI (IGROV1 ovarian) was 36 µM and the TGI (DMS 114 small cell lung) was 14.9 µM. It also gave a TGI (A549 NSCLC) of 16.2 µM, a TGI (HCC-2998 colon) of 16.5 µM and a TGI (NCI-H226 lung) of 28.9 µM. The TGI (OVCAR-5 ovarian) was 32 µM, the TGI (SF-295 CNS) was 23.6 µM and the TGI (ACHN renal) was 13.2 µM. It also gave a TGI (SK-OV-3 ovarian) of 96 µM, a TGI (RPMI-8226 leukemia) of 26.2 µM and a TGI (DMS 273 small cell lung) of 13.2 µM. It also gave a TGI (COLO 205 colon) of 11 µM, a TGI (NCI-H460 lung) of 10.2 µM and a TGI (SF-539 CNS) of 12.4 µM. The TGI (OVCAR-8 ovarian) was 57.6 µM, the TGI (SNB-75 CNS) was 28.6 µM and the TGI (MOLT-4 leukemia) was 32.3 µM. The TGI (SK-MEL-5 melanoma) was 3.02 µM, the TGI (SN12C renal) was 17.9 µM and the TGI (TK-10 renal) was 40.9 µM. For the same compound, the TGI (HT29 colon) was 15.9 µM, the TGI (HOP-18 NSCLC) was 26.2 µM and the TGI (CAKI-1 renal) was 19.7 µM. For the same compound, the TGI (SF-268 CNS) was 61.9 µM, the TGI (XF 498 CNS) was 13.4 µM and the TGI (HOP-62 NSCLC) was 45.3 µM. For the same compound, the TGI (M14 melanoma) was 9.79 µM, the TGI (SNB-78 CNS) was 43.7 µM and the TGI (U251 CNS) was 23.3 µM. The TGI (SK-MEL-28 melanoma) was 37.3 µM, the TGI (HL-60(TB) leukemia) was 16.7 µM and the TGI (SW-620 colon) was 22 µM. For the same compound, the TGI (KM12 colon) was 43.2 µM, the TGI (DLD-1 colon) was 32.6 µM and the TGI (OVCAR-3 ovarian) was 6.17 µM. The TGI (SNB-19 CNS) was 65.9 µM, the TGI (SK-MEL-2 melanoma) was 31.1 µM and the TGI (NCI-H522 lung) was 28.3 µM. The TGI (CCRF-CEM leukemia) was 42.7 µM, the TGI (786-0 renal) was 33.4 µM and the TGI (K-562 leukemia) was 32.5 µM. For the same compound, the TGI (LXFL 529 NSCLC) was 26.2 µM, the TGI (M19-MEL melanoma) was 5.03 µM and the TGI (HCT-15 colon) was 23.3 µM. For the same compound, the TGI (EKVX NSCLC) was 36.6 µM, the TGI (HOP-92 NSCLC) was 25.3 µM and the TGI (UACC-62 melanoma) was 6.14 µM. The TGI (MALME-3M melanoma) was 11.4 µM and the TGI (OVCAR-4 ovarian) was 21.6 µM.

Nc1nc2sc3ccccc3c(=O)n2n1 gave a TGI (HCT-116 colon) of over 100 µM, a TGI (UO-31 renal) of over 100 µM and a TGI (NCI-H23 lung) of over 100 µM. The TGI (KM20L2 colon) was over 100 µM, the TGI (IGROV1 ovarian) was over 100 µM and the TGI (DMS 114 small cell lung) was over 100 µM. For the same compound, the TGI (LOX IMVI melanoma) was over 100 µM, the TGI (A549 NSCLC) was over 100 µM and the TGI (HCC-2998 colon) was over 100 µM. For the same compound, the TGI (NCI-H226 lung) was over 100 µM, the TGI (OVCAR-5 ovarian) was over 100 µM and the TGI (SF-295 CNS) was over 100 µM. The TGI (ACHN renal) was over 100 µM, the TGI (SK-OV-3 ovarian) was over 100 µM and the TGI (RPMI-8226 leukemia) was over 100 µM. The TGI (DMS 273 small cell lung) was over 100 µM, the TGI (COLO 205 colon) was over 100 µM and the TGI (NCI-H460 lung) was over 100 µM. The TGI (SF-539 CNS) was over 100 µM, the TGI (OVCAR-8 ovarian) was over 100 µM and the TGI (SNB-75 CNS) was over 100 µM. For the same compound, the TGI (MOLT-4 leukemia) was over 100 µM, the TGI (SK-MEL-5 melanoma) was over 100 µM and the TGI (SN12C renal) was over 100 µM. It also gave a TGI (TK-10 renal) of over 100 µM, a TGI (HT29 colon) of over 100 µM and a TGI (HOP-18 NSCLC) of over 100 µM. For the same compound, the TGI (CAKI-1 renal) was over 100 µM, the TGI (SF-268 CNS) was over 100 µM and the TGI (RXF 393 renal) was over 100 µM. The TGI (XF 498 CNS) was over 100 µM, the TGI (HOP-62 NSCLC) was over 100 µM and the TGI (M14 melanoma) was over 100 µM. The TGI (SR leukemia) was over 100 µM, the TGI (SNB-78 CNS) was over 100 µM and the TGI (U251 CNS) was over 100 µM. For the same compound, the TGI (SK-MEL-28 melanoma) was over 100 µM, the TGI (HL-60(TB) leukemia) was over 100 µM and the TGI (SW-620 colon) was over 100 µM. It also gave a TGI (KM12 colon) of over 100 µM, a TGI (DLD-1 colon) of over 100 µM and a TGI (OVCAR-3 ovarian) of over 100 µM. It also gave a TGI (SNB-19 CNS) of over 100 µM, a TGI (SK-MEL-2 melanoma) of over 100 µM and a TGI (CCRF-CEM leukemia) of over 100 µM. It also gave a TGI (786-0 renal) of over 100 µM, a TGI (K-562 leukemia) of over 100 µM and a TGI (LXFL 529 NSCLC) of over 100 µM. The TGI (HCT-15 colon) was over 100 µM, the TGI (UACC-257 melanoma) was over 100 µM and the TGI (EKVX NSCLC) was over 100 µM. For the same compound, the TGI (HOP-92 NSCLC) was over 100 µM, the TGI (UACC-62 melanoma) was over 100 µM and the TGI (MALME-3M melanoma) was over 100 µM. For the same compound, the TGI (OVCAR-4 ovarian) was over 100 µM.
